According to ChEMBL document CHEMBL3804816 (Medchemcomm, 2016):
pEC50, pIC50: −log10 of the molar value. Active and inactive are the calls of the source. No cut-off for these calls is given here.

Assays:
Format in all cases: cell-based
[1] = Agonist activity at GABA type-A receptor in human IMR32 cells after 2 hrs by Epic DMR assay; conditions: IMR-32, 2 h
[2] = test system: IMR-32; experiment: Agonist activity at GABA type-A receptor in human IMR32 cells at 1 mM after 2 hrs by Epic DMR assay
[3] = Antagonist activity against GABA type-A receptor in human IMR32 cells assessed as GABA-induced response preincubated for 10 mins followed by GABA addition measured at 140 mins by Epic DMR assay
[4] = test system: IMR-32; experiment: Agonist activity at GABA type-A receptor in human IMR32 cells at 100 uM after 2 hrs by Epic DMR assay

Question: With `NCc1cc(O)no1` [MUSCIMOL] as the compound, how does the pEC50 ([1]; read-out: EC50) read?
Answer: Its pEC50 is 5.69.

Question: And the EC50 ([1]; read-out: pEC50 (converted))?
Answer: Its EC50 is 1.7 µM.

Question: And the Activity [2]?
Answer: Its Activity is “Active”.

Question: With `COc1ccc(-c2ccc(=N)n(CCCC(=O)O)n2)cc1` [GABAZINE] as the compound, how does the pIC50 ([3]; IMR-32, read-out: IC50) read?
Answer: The pIC50 was 5.13.

Question: What about the IC50 ([3]; IMR-32, read-out: pIC50 (converted)) of the same compound?
Answer: The IC50 was 4.57 µM.

Question: Which Activity [2] does the source give for `Oc1noc2c1CCNC2` here?
Answer: Its Activity is “Active”.

Question: With `NCC(CC(=O)O)c1ccc(Cl)cc1` (racemic) as the compound, how does the Activity [4] read?
Answer: Its Activity is “inactive”.
